IC50 data for 17 compounds are collected here from patent publication US8354415B2, “Thienopyrimidine compounds and compositions” (Vernalis (R&D) Ltd., priority 2007, dated 2013).

Some results are limits rather than exact numbers.

The assay concerns the target T1, human adenosine A2B receptors (Homo sapiens, UniProt P29275).
T1 construct: expressed in transfected cells
T1 sequence (P29275 1-332): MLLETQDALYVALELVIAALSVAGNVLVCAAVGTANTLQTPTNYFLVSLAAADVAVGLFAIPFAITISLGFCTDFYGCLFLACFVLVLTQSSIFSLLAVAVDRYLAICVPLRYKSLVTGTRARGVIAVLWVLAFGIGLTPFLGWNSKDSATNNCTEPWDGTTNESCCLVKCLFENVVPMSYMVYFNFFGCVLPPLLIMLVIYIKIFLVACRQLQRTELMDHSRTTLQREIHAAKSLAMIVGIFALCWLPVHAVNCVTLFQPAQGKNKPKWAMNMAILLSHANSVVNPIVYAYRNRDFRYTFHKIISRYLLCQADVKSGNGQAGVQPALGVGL
The assay can be described thus: FLIPR calcium flux assay, adenosine A2B receptor expressing cells. In kind it is cell-based. The following applies: expressed human adenosine A2B receptors in mammalian cell lines, activity range. How it is done: The use of a Fluorometric Imaging Plate Reader (FLIPR) to measure calcium flux in Adenosine-receptor expressing cells is a well-established technique. In this assay calcium flux is triggered by receptor activation and measured through the fluorescence of an incorporated calcium-sensitive dye. The potencies shown were determined using expressed human adenosine A2B receptors in mammalian cell lines. Selectivity values were obtained by using mammalian cell lines expressing the human adenosine A1, A2A, and A3 receptors. Compound potency was determined from dose response curves and are reported as IC50 values.
(Calcium assays in cells follow changes in intracellular calcium, usually with a dye or a luminescent sensor.)
The term IC50 denotes the concentration that inhibits the measured activity by half. Take `Nc1nc(C(=O)NC2CC2)c2sccc2n1` [Example 21, 2-Amino-thieno[3,2-d]pyrimidine-4-carboxylic acid cyclopropylamide]: the IC50 was more than 500 nM.
In the case of `O=C(NC1CCCC1)c1nc(NCc2cccnc2)nc2ccsc12` [Example 12, 2-[(Pyridin-3-ylmethyl)-amino]thieno[3,2-d]pyrimidine-4-carboxylic acid cyclopentylamide], the IC50 was more than 500 nM.
`O=C(c1nc(NCc2cccnc2)nc2ccsc12)N1CCCC1` [Example 9, {2-[(Pyridin-3-ylmethyl)-amino]-thieno[3,2-d]pyrimidin-4-yl}-pyrrolidin-1-yl-methanone]: the IC50 was less than 500 nM.
The same measure for `O=C(NCc1cccnc1)c1nc(NCc2cccnc2)nc2ccsc12` [Example 18, 2-[(Pyridin-3-ylmethyl)-amino]-thieno[3,2-d]pyrimidine-4-carboxylic acid (pyridin-3-ylmethyl)-amide]: more than 500 nM; for `CC(C)NC(=O)c1nc(NCc2cccnc2)nc2ccsc12` [Example 11, 2-[(Pyridin-3-ylmethyl)-amino]-thieno[3,2-d]pyrimidine-4-carboxylic acid isopropylamide]: less than 500 nM; for `O=C(NCc1ccccc1)c1nc(NCc2cccnc2)nc2ccsc12` [Example 16, 2-[(Pyridin-3-ylmethyl)-amino]-thieno[3,2-d]pyrimidine-4-carboxylic acid benzylamide]: less than 500 nM.
In the case of `O=C(NC1CCCCC1)c1nc(NCc2cccnc2)nc2ccsc12` [Example 15, 2-[(Pyridin-3-ylmethyl)-amino]-thieno[3,2-d]pyrimidine-4-carboxylic acid cyclohexylamide] it was less than 500 nM; in that of `O=C(c1nc(NCc2cccnc2)nc2ccsc12)N1CCCCC1` [Example 19, Piperidin-1-yl-{2-[(pyridin-3-ylmethyl)-amino]-thieno[3,2-d]pyrimidin-4-yl}-methanone], more than 500 nM; in that of `C[C@H](Nc1nc(C(=O)N2CCCC2)c2sccc2n1)c1cccnc1` [Example 23, (S)-[2-(1-Pyridin-3-yl-ethylamino)-thieno[3,2-d]pyrimidin-4-yl]-pyrrolidin-1-yl-methanone], less than 500 nM.
As to `O=C(NC1CC1)c1nc(NCc2cccnc2)nc2ccsc12` [Example 10, 2-[(Pyridin-3-ylmethyl)-amino]-thieno[3,2-d]pyrimidine-4-carboxylic acid cyclopropylamide], the IC50 is more than 500 nM.
In the case of `C[C@@H](Nc1nc(C(=O)N2CCCC2)c2sccc2n1)c1cccnc1` [Example 22] it was more than 500 nM; in that of `CC(Nc1nc(C(=O)NC2CC2)c2sccc2n1)c1cccnc1` (centres unmarked) [Example 20, 2-(1-Pyridin-3-yl-ethylamino)-thieno[3,2-d]pyrimidine-4-carboxylic acid cyclopropylamide], less than 500 nM.
As for `CC(Nc1nc(C(=O)N2CCCC2)c2sccc2n1)c1cccnc1` (racemic) [Example 7, [2-(1-Pyridin-3-yl-ethylamino)-thieno[3,2-d]pyrimidin-4-yl]-pyrrolidin-1-yl-methanone], the IC50 is more than 500 nM.
In the case of `O=C(NCCc1ccccc1)c1nc(NCc2cccnc2)nc2ccsc12` [Example 14, 2-[(Pyridin-3-ylmethyl)-amino]-thieno[3,2-d]pyrimidine-4-carboxylic acid phenethyl-amide] it was less than 500 nM; in that of `COCCNC(=O)c1nc(NCc2cccnc2)nc2ccsc12` [Example 17, 2-[(Pyridin-3-ylmethyl)-amino]-thieno[3,2-d]pyrimidine-4-carboxylic acid (2-methoxy-ethyl)-amide], more than 500 nM.
In the case of `CNC(=O)c1nc(NCc2cccnc2)nc2ccsc12` [Example 13, 2-[(Pyridin-3-ylmethyl)-amino]-thieno[3,2-d]pyrimidine-4-carboxylic acid methylamide] it was more than 500 nM; in that of `CCNC(=O)c1nc(NCc2cccnc2)nc2ccsc12` [Example 8, 2-[(Pyridin-3-ylmethyl)-amino]-thieno[3,2-d]pyrimidine-4-carboxylic acid ethylamide], more than 500 nM.
